Several values for one entry are separate records, joined by “and”; a condition that tells them apart may be missing. Identical values can stand only once.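 Cultured in 96-well plates, cells were exposed to test compound for 48 hours across five concentrations. GI50 marks 50% less growth.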 Activity calls are given as the source filed them. Rule as the data show it: active = GI50 up to about 1.1 µM and inactive = higher.
How the values were obtained:
Assay in all cases: NCI tumour cell line growth inhibition, 48 h
786-0 = tested on: 786-0
CAKI-1 = tested on: CAKI-1
NCI-H226 = tested on: NCI-H226
Malme-3M = tested on: Malme-3M
HT-29 = tested on: HT-29
K562 = tested on: K562
HOP-92 = tested on: HOP-92
UACC-62 = tested on: UACC-62
SF-295 = tested on: SF-295
ACHN = tested on: ACHN
HL-60 = tested on: HL-60
PC-3 = tested on: PC-3
HCT-116 = tested on: HCT-116
NCI-H522 = tested on: NCI-H522
UO-31 = tested on: UO-31
LOX IMVI = tested on: LOX IMVI
HCT-15 = tested on: HCT-15
MDA-MB-231 = tested on: MDA-MB-231
OVCAR-8 = tested on: OVCAR-8
M14 = tested on: M14
EKVX = tested on: EKVX
NCI/ADR-RES = tested on: NCI/ADR-RES
A549 = tested on: A549
RXF 393 = tested on: RXF 393
MDA-N = tested on: MDA-N
MOLT-4 = tested on: MOLT-4
HOP-62 = tested on: HOP-62
SW-620 = tested on: SW-620
Hs-578T = tested on: Hs-578T
SNB-75 = tested on: SNB-75
CCRF-CEM = tested on: CCRF-CEM
UACC-257 = tested on: UACC-257
MCF7 = tested on: MCF7
SN12C = tested on: SN12C
SF-539 = tested on: SF-539
HCC 2998 = tested on: HCC 2998
SK-MEL-28 = tested on: SK-MEL-28
SK-OV-3 = tested on: SK-OV-3
SNB-19 = tested on: SNB-19
KM12 = tested on: KM12
OVCAR-3 = tested on: OVCAR-3
IGROV-1 = tested on: IGROV-1
NCI-H460 = tested on: NCI-H460
RPMI-8226 = tested on: RPMI-8226
SK-MEL-2 = tested on: SK-MEL-2
U-251 = tested on: U-251
SR = tested on: SR
OVCAR-5 = tested on: OVCAR-5
OVCAR-4 = tested on: OVCAR-4
NCI-H23 = tested on: NCI-H23
TK-10 = tested on: TK-10
DU-145 = tested on: DU-145
COLO 205 = tested on: COLO 205
SF-268 = tested on: SF-268
SK-MEL-5 = tested on: SK-MEL-5
MDA-MB-435 = tested on: MDA-MB-435
A498 = tested on: A498
T47D = tested on: T47D

For `COC(=O)NCCc1n[nH]c2c1C(=O)C=C(OC)C2=O`, the GI50 (786-0) was 19.5 µM (inactive), the GI50 (CAKI-1) was 24.5 µM (inactive) and the GI50 (NCI-H226) was 23 µM (inactive). For the same compound, the GI50 (Malme-3M) was 15.5 µM (inactive), the GI50 (HT-29) was 42.6 µM (inactive) and the GI50 (K562) was 17.5 µM (inactive). For the same compound, the GI50 (HOP-92) was 21.5 µM (inactive), the GI50 (UACC-62) was 25.4 µM (inactive) and the GI50 (SF-295) was 18.2 µM (inactive). The GI50 (ACHN) was 19.1 µM (inactive), the GI50 (HL-60) was 16.6 µM (inactive) and the GI50 (PC-3) was 34.9 µM (inactive). For the same compound, the GI50 (HCT-116) was 18.6 µM (inactive), the GI50 (NCI-H522) was 23.9 µM (inactive) and the GI50 (UO-31) was 24.3 µM (inactive). For the same compound, the GI50 (LOX IMVI) was 17.8 µM (inactive), the GI50 (HCT-15) was 28.4 µM and the GI50 (MDA-MB-231) was 16.1 µM (inactive). The GI50 (OVCAR-8) was 22 µM (inactive), the GI50 (M14) was 19.7 µM (inactive) and the GI50 (EKVX) was 22.9 µM (inactive). For the same compound, the GI50 (NCI/ADR-RES) was > 100 µM (inactive), the GI50 (A549) was 46.7 µM (inactive) and the GI50 (RXF 393) was 17.6 µM (inactive). For the same compound, the GI50 (MDA-N) was 17.9 µM (inactive), the GI50 (MOLT-4) was 19.9 µM (inactive) and the GI50 (HOP-62) was 20.9 µM (inactive). The GI50 (SW-620) was 22.6 µM (inactive), the GI50 (Hs-578T) was 34.3 µM (inactive) and the GI50 (SNB-75) was 19.2 µM (inactive). The GI50 (CCRF-CEM) was 21.1 µM (inactive), the GI50 (UACC-257) was 15 µM (inactive) and the GI50 (MCF7) was 27.2 µM (inactive). The GI50 (SN12C) was 20.3 µM (inactive), the GI50 (SF-539) was 19.4 µM (inactive) and the GI50 (HCC 2998) was > 100 µM (inactive). The GI50 (SK-MEL-28) was 20.1 µM (inactive), the GI50 (SK-OV-3) was > 100 µM (inactive) and the GI50 (SNB-19) was 21.3 µM (inactive). The GI50 (KM12) was 20.9 µM (inactive), the GI50 (OVCAR-3) was 17.9 µM (inactive) and the GI50 (IGROV-1) was 19.9 µM (inactive). For the same compound, the GI50 (NCI-H460) was > 100 µM (inactive), the GI50 (RPMI-8226) was 24.5 µM (inactive) and the GI50 (SK-MEL-2) was 54.2 µM (inactive). For the same compound, the GI50 (U-251) was 16.7 µM (inactive), the GI50 (SR) was 15 µM (inactive) and the GI50 (OVCAR-5) was 20.7 µM (inactive). For the same compound, the GI50 (OVCAR-4) was 19.6 µM (inactive), the GI50 (NCI-H23) was 20 µM (inactive) and the GI50 (TK-10) was 43.9 µM (inactive). The GI50 (DU-145) was 52.6 µM (inactive), the GI50 (COLO 205) was 24.8 µM (inactive) and the GI50 (SF-268) was 18.5 µM (inactive). For the same compound, the GI50 (SK-MEL-5) was 15.5 µM (inactive) and the GI50 (MDA-MB-435) was 14.6 µM (inactive).
`CC(=O)OCC1OC(n2c(-c3ccccc3)c(C)c(C)c(C#N)c2=S)C(OC(C)=O)C(OC(C)=O)C1OC(C)=O` (stereo unspecified) was tested, and the GI50 (CAKI-1) was > 50 µM (inactive), the GI50 (NCI-H226) was > 50 µM (inactive) and the GI50 (Malme-3M) was > 50 µM (inactive) and 38.1 µM (inactive). The GI50 (HT-29) was > 50 µM (inactive), the GI50 (SF-295) was 21 µM (inactive) and 23.1 µM (inactive) and the GI50 (HL-60) was > 100 µM (inactive). The GI50 (PC-3) was 26.4 µM (inactive), the GI50 (NCI-H522) was > 50 µM (inactive) and 65.8 µM (inactive) and the GI50 (HCT-15) was 64.4 µM. The GI50 (MDA-MB-231) was 12.9 µM (inactive) and 12.8 µM (inactive), the GI50 (EKVX) was 13.5 µM (inactive) and 14.8 µM (inactive) and the GI50 (NCI/ADR-RES) was 34.2 µM (inactive) and 47.4 µM (inactive). For the same compound, the GI50 (MDA-N) was 28.8 µM (inactive) and 18.1 µM (inactive), the GI50 (MOLT-4) was > 50 µM (inactive) and the GI50 (A498) was > 50 µM (inactive) and 43.8 µM (inactive). For the same compound, the GI50 (SNB-75) was > 100 µM (inactive), the GI50 (UACC-257) was 54.5 µM (inactive) and the GI50 (MCF7) was > 50 µM (inactive). For the same compound, the GI50 (HCC 2998) was > 50 µM (inactive) and 86.3 µM (inactive), the GI50 (SK-MEL-28) was 72.4 µM (inactive) and the GI50 (KM12) was > 50 µM (inactive). For the same compound, the GI50 (OVCAR-3) was 37.4 µM (inactive) and 27.2 µM (inactive), the GI50 (IGROV-1) was > 100 µM (inactive) and the GI50 (NCI-H460) was > 50 µM (inactive) and 43.4 µM (inactive). The GI50 (U-251) was 20.3 µM (inactive), the GI50 (OVCAR-5) was 37.3 µM (inactive) and the GI50 (T47D) was > 50 µM (inactive) and 34 µM (inactive). For the same compound, the GI50 (COLO 205) was > 100 µM (inactive), the GI50 (SK-MEL-5) was > 100 µM (inactive) and the GI50 (MDA-MB-435) was 57.5 µM (inactive).
For `Cc1ccc(-c2cc(-c3ccco3)c(C#N)c(=S)n2C2OC(CO)C(O)C(O)C2O)cc1` (stereo unspecified), the GI50 (786-0) was 36.6 µM (inactive) and 56.8 µM (inactive), the GI50 (HT-29) was 34.9 µM (inactive) and 34 µM (inactive) and the GI50 (K562) was 39 µM (inactive). For the same compound, the GI50 (UACC-62) was 2.23 µM (inactive) and 2.48 µM (inactive), the GI50 (UO-31) was 18.5 µM (inactive) and 31.7 µM (inactive) and the GI50 (HCT-15) was 94.6 µM and 49.2 µM. The GI50 (M14) was 17.7 µM (inactive) and 30.3 µM (inactive), the GI50 (EKVX) was > 100 µM (inactive) and 95.9 µM (inactive) and the GI50 (RXF 393) was 18.6 µM (inactive) and 18.9 µM (inactive). For the same compound, the GI50 (MDA-N) was 30.4 µM (inactive) and 34.4 µM (inactive), the GI50 (A498) was 41 µM (inactive) and 28.2 µM (inactive) and the GI50 (SNB-75) was 66.4 µM (inactive) and 60.5 µM (inactive). For the same compound, the GI50 (UACC-257) was 53.8 µM (inactive) and 45.3 µM (inactive), the GI50 (MCF7) was 27.9 µM (inactive) and 49 µM (inactive) and the GI50 (HCC 2998) was > 100 µM (inactive). The GI50 (SK-MEL-28) was 52.2 µM (inactive) and 41 µM (inactive), the GI50 (SNB-19) was 36.1 µM (inactive) and 68.9 µM (inactive) and the GI50 (KM12) was 17.2 µM (inactive) and 30.1 µM (inactive). The GI50 (OVCAR-3) was 21.4 µM (inactive) and 35.6 µM (inactive), the GI50 (NCI-H460) was 28 µM (inactive) and 36.6 µM (inactive) and the GI50 (RPMI-8226) was 4.46 µM (inactive) and 6.04 µM (inactive). For the same compound, the GI50 (OVCAR-5) was 45.7 µM (inactive) and 39.5 µM (inactive), the GI50 (TK-10) was 67.8 µM (inactive) and 54.5 µM (inactive) and the GI50 (COLO 205) was 27.2 µM (inactive) and 35.1 µM (inactive). The GI50 (MDA-MB-435) was 43.2 µM (inactive) and 38.9 µM (inactive).

— ChEMBL document CHEMBL1201862, “PubChem BioAssay data set” (2004)
